According to patent US20100267002A1, “PEPTIDE HAVING LIFE-LENGTHENING EFFECT ON CELLS” (National Institute of Advanced Industrial Science and …, priority 2009, published 2010):

What was measured:
[1] = tested on: HepG2 cells; experiment: HepG2 cell preservation at 4° C., survival ratio by Cellstain (Calcein-AM/PI) fluorescent double staining; type: cell-based, human; conditions: for cell survival ratio (fluorescent dye observation): HepG2, 4° C., 48 hours, peptide 10 mg/ml in Euro-Collins solution
Procedure: (§1) Nfe6-, Nfe8-, and Nfe11-based confirmation of cell protecting effects and cell preserving effects was performed with the use of the HepG2 cell line (FIG. 3) derived from the human liver (purchased from Riken Cell Bank). The experiment was carried out using the HepG2 cells that had been cultured for about a week in Dulbecco's Modified Eagle's Medium (DMEM) (Sigma-Aldrich, Japan) (a culture solution) containing 10% bovine serum (FBS, Gibco) and 50 μg/ml penicillin/streptomycin (Invitrogen). FBS was inactivated by heating at 56° C. for 30 minutes and then used. Culture was conducted in a CO2 incubator (SANYO) using a flask in an atmosphere of 5% CO2 at 37° C. The HepG2 cells that had reached subconfluent conditions (i.e., conditions immediately before the container becomes filled with cells) were treated with a trypsin solution (Wako Pure Chemical Industries, Ltd.) to prepare a cell suspension. The cell suspension was sowed on a cell culture microplate, culture was conducted in a CO2 incubator (5% CO2, 37° C.) overnight, and the resultant was then used for the preservation experiment. In all the experiments described below, cells were preserved at 4° C.
The cells that had been subjected to preservation treatment for 48 hours were stained with Cellstain (Cell Double Staining Kit, available from Dojindo Laboratories), and the cells were observed under a fluorescent microscope (Olympus IX70) to evaluate the survival ratio. Cellstain (Cell Double Staining Kit) involves the use of Calcein-AM fluorescent dye, which stains viable cells, in combination with PI (Propidium iodide) fluorescent dye, which stains dead cells. […] Thereafter, the cell culture plate was mounted on a fluorescent microscope, and “viable cells stained yellow green” were observed using a fluorescence cube for GFP (excitation filter: BP460-480; dichroic mirror: DM450; absorption filter: BA460-510). Also, “dead cells stained red” were observed using a fluorescence cube for YFP (excitation filter: BP490-500; dichroic mirror: DM505; absorption filter: BA515-560).

[2] = tested on: HepG2 cells; experiment: HepG2 cell preservation at 4° C., survival ratio by WST-8 (Cell Counting Kit-8); type: cell-based, human; conditions: HepG2, 4° C., 48 hours, peptide 10 mg/ml in EC solution, 11 repetitions
Procedure: as §1, with “The cell suspension was sowed on a cell culture microplate, culture was conducted in a CO2 incubator (5% CO2, 37° C.) overnight, and the resultant was then used for the preservation experiment. In all the experiments described below, cells were preserved at 4° C.” left out
[…] The amount of water-soluble formazan in the medium was evaluated by measuring the absorbance at 450 nm using a microplate reader (Sunrise Remote, Wako Pure Chemical Industries, Ltd.), and the percentage of viable cells after the cell preservation experiment was determined using the number of cells determined by adding WST-8 to the HepG2 cells before the preservation experiment as a control (100%).

[3] = tested on: HepG2 cells; experiment: HepG2 cell preservation at 4° C., survival ratio by amount of LDH released; type: cell-based, human; conditions: HepG2, 4° C., peptide 10 mg/ml in EC solution, 11 repetitions; for survival ratio based on the assay of the amount of LDH: 24 hours
Procedure: as §1
Further, the cell survival ratio after 24-hour-preservation was estimated using the LDH Cytotoxicity Detection Kit (Takara Bio Inc.). The LDH amount was measured by sowing the cell suspension prepared by the method described in (5) on a 4-well cell culture plate (Nalge Nunc International K.K.) and subjecting the resultants to the preservation experiment at 4° C. for 24 hours and for 48 hours. […] The amount of red formazan generated was evaluated by assaying the absorbance at 490 nm using a microplate reader (Sunrise Remote, Wako Pure Chemical Industries, Ltd.). In this experiment, the LDH amount when the HepG2 cells had been preserved for 24 hours using a cell preservative solution containing 1% Triton X (the A2 solution) was designated as 100% and the percentage of LDH in the experiment was determined based thereon.

[4] = tested on: HepG2 cells; experiment: HepG2 cell preservation at 4° C., survival ratio by amount of ATP (CellTiter-Glo); type: cell-based, human; conditions: HepG2, 4° C., 48 hours, peptide 10 mg/ml in EC solution, 11 repetitions
Procedure: Nfe6-, Nfe8-, and Nfe11-based confirmation of cell protecting effects and cell preserving effects was performed with the use of the HepG2 cell line (FIG. 3) derived from the human liver (purchased from Riken Cell Bank). The experiment was carried out using the HepG2 cells that had been cultured for about a week in Dulbecco's Modified Eagle's Medium (DMEM) (Sigma-Aldrich, Japan) (a culture solution) containing 10% bovine serum (FBS, Gibco) and 50 μg/ml penicillin/streptomycin (Invitrogen). FBS was inactivated by heating at 56° C. for 30 minutes and then used. Culture was conducted in a CO2 incubator (SANYO) using a flask in an atmosphere of 5% CO2 at 37° C. […]
Since the metabolism is reduced at low temperatures, substantially no ATP is synthesized in cells. […] The ATP concentration was measured using a 96-well cell culture plate for emission measurement (Nalge Nunc International K.K.) and the HepG2 cells prepared by the method described in (5). […] ATP concentration after preservation was evaluated by adding a luminescent reagent (CellTiter-Glo, Promega) to wells and assaying the luminescent intensity using a microplate reader (Wallac 1420 ARVOsx, PerkinElmer Life Sciences, Japan). […]

[5] = tested on: fertilized eggs of Japanese Black Cattle; experiment: preservation of fertilized eggs of Japanese Black Cattle at 4° C., survival by microscopic observation; type: cell-based
Procedure: The fertilized eggs of Japanese Black Cattle were subjected to the preservation experiment at 4° C. for 72 to 96 hours (3 to 4 days) using Nfe11, and the survival ratio of the fertilized eggs after preservation was assayed. At the outset, the follicle-stimulating hormones (FSH) were used to subject superovulated […] cattle to artificial insemination. Seven days thereafter, 3 to 6 fertilized eggs at the initial blastocyst stage were removed from the salpinx of the […] cattle and introduced into a straw having a diameter of 400 micrometers. In this case, Nfe11 powder samples were dissolved in a phosphate buffer (PBS) to a concentration of 5 mg/ml or 10 mg/ml, and the recovered fertilized eggs were soaked in the resulting solutions. Both ends of the straw were sealed, the resultant was allowed to stand in a refrigerator at 4° C., and the preservation experiment was carried out for 72 hours to 96 hours. Survival of the fertilized eggs after the preservation experiment was evaluated using a microscopic observation. As a result, the data as shown below were obtained.

Substance | cell survival ratio (fluorescent dye observation) [1] | cell protection effects ([1]; HepG2 cell lines, 10 mg/ml in Euro-Collins solution) | survival ratio of HepG2 cells, amount of WST-8 [2] | survival ratio based on the assay of the amount of LDH [3] | cell survival ratio, amount of LDH released (100 minus LDH value) ([3]; 48 hours) | cell survival ratio, amount of ATP [4] | survival ratio of cattle fertilized eggs ([5]; 5 mg/ml in PBS, 72 hours) | survival ratio of cattle fertilized eggs ([5]; 5 mg/ml in PBS, 96 hours) | survival ratio of cattle fertilized eggs ([5]; 10 mg/ml in PBS, 96 hours)
Nfe11: recombinant 66-residue peptide from Zoarces elongatus Kner, amino acid sequence SEQ ID NO: 6, no thermal hysteresis activity | about 75% | sufficient cell protection effects | ~48% | ~34% | ~62% | 60% | 67% | 50% | 50%
Nfe6: recombinant Nfe peptide from Zoarces elongatus Kner, SEQ ID NO: 2, no thermal hysteresis activity [reference compound] | about 40% | – | – | ~56% | – | – | – | – | –
